Consider 11 compounds from publication PMC2574845 (Drug metabolism and disposition: the biological fate of …, 2008).

Series [1] has as its target recombinant human NQO1 (rhNQO1) (Homo sapiens, UniProt P15559). As to the kind of experiment: Relative stability of hydroquinone ansamycins. It counts as physicochemical. Particulars: for relative stability of BAH2 (nmol oxygen consumption per nmol NADH oxidized), rank order: 50 mM potassium phosphate buffer, pH 7.4, 35 °C, BAH2 generated by rhNQO1 and NADH, > indicates p<0.05.

A short description of series [2]: Metabolism. Conditions: mouse liver microsomes, 50 μM BA, pH 7.4, 35 °C; for relative oxygen consumption rates, NADH-dependent metabolism, rank order: > indicates p<0.05; for oxygen consumption rates, NADPH-dependent metabolism, comparison: p<0.05. (In general: Liver microsomes are a subcellular fraction often used to study metabolism.)
Series [3] in a line: Metabolism. Particulars: human liver microsomes, 50 μM BA, pH 7.4, 35 °C, > indicates p<0.05.
The nature of series [4]: BA-glutathione conjugate formation. Conditions: 50 μM BA; for relative rate of glutathione conjugate formation, rank order / fraction of BA conjugated with glutathione: 5 mM glutathione, pH 7.4, room temperature; for fraction of BA conjugated with glutathione: data not shown.
Another series addresses rhNQO1 (Homo sapiens, UniProt P15559). Description: Prevention of GM and 17DMAG glutathione conjugate formation by rhNQO1. It counts as biochemical. Conditions: for prevention of conjugation with glutathione by NQO1 reduction: 50 μM BA, 5 mM GSH, 11.8 μg rhNQO1, 500 μM NADH, pH 7.4, room temperature.
A short description of series [5]: Quinone/hydroquinone cycling in microsomal incubations. Particulars: microsomal incubation with NAD(P)H; data not shown.
Series [6] addresses T1, human NADPH-cytochrome P450 reductase (Homo sapiens, UniProt P16435).
T1 sequence (P16435 1-677): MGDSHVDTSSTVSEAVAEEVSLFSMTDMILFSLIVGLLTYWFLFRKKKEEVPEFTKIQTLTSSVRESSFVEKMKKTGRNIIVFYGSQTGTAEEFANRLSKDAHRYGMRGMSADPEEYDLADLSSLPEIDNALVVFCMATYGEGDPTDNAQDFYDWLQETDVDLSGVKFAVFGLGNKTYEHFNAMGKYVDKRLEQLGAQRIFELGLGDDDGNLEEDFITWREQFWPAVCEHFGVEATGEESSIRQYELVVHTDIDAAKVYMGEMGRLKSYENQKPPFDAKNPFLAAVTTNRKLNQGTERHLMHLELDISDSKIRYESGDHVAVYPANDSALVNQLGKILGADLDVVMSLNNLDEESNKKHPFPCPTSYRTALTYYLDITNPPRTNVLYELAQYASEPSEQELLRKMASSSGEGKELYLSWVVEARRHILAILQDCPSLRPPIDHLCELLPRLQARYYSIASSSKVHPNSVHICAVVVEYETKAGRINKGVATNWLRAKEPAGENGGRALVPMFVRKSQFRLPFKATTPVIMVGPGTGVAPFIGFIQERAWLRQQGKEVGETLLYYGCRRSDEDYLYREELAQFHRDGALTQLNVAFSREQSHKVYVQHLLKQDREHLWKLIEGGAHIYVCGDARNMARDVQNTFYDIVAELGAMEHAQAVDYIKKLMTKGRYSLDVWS
Particulars: GM, NADH and NADPH-cytochrome P450 reductase, no NADPH.

The conditions of series [7]: in water; ref Lang et al., 2007; cited from earlier work.
For series [8] the following is noted: 5 min, 50 μM, pH 7.4.

Chain of recombinant human NQO1 (rhNQO1) (P15559 whole entry): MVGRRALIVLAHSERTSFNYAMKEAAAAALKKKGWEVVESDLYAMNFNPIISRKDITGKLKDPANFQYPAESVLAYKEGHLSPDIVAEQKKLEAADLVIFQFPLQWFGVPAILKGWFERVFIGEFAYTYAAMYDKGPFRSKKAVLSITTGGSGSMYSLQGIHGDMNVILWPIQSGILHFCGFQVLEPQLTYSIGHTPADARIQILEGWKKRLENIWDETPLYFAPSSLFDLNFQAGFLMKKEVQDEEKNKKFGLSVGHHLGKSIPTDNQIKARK
Chain of rhNQO1 (P15559 whole entry): as above

Consider `COC1C=CC=C(C)C(=O)Nc2cc(O)c(N)c(c2O)CC(C)CC(OC)C(O)C(C)C=C(C)C1OC(N)=O` (stereo not shown) [17AGH2, 17-(amino)-17-demethoxygeldanamycin hydroquinone], for which the “relative stability of BAH2 (nmol oxygen consumption per nmol NADH oxidized), rank order” value in series [1] is given as “GMH2>17AAGH2>17DMAGH2>17AGH2, 17AEP-GAH2”.
Still for that read-out and setting: the result for `CO[C@H]1/C=C\C=C(/C)C(=O)Nc2cc(O)c(NCCN(C)C)c(c2O)C[C@@H](C)C[C@H](OC)[C@H](O)[C@@H](C)/C=C(\C)[C@@H]1OC(N)=O` [17DMAGH2, 17-demthoxy-17-[[2-(dimethylamino)ethyl]amino]-geldanamycin hydroquinone] reads “GMH2>17AAGH2>17DMAGH2>17AGH2, 17AEP-GAH2”.
In the case of `CO[C@H]1/C=C\C=C(/C)C(=O)NC2=CC(=O)C(NCCN3CCCC3)=C(C[C@@H](C)C[C@H](OC)[C@H](O)[C@@H](C)/C=C(\C)[C@@H]1OC(N)=O)C2=O` [17AEP-GA, 17-demethoxy-17-[[2-(pyrrolidin-1-yl)ethyl]amino]-geldanamycin], in the series “Metabolism [2]”, the “relative oxygen consumption rates, NADH-dependent metabolism, rank order” value is “GM>17DMAG>17AG, 17AEP-GA, 17AAG” and the “oxygen consumption rates, NADPH-dependent metabolism, comparison” value (from here on “oxygen consumption rates … comparison”) is reported as “significantly greater than 17AAG”. Also, in “Metabolism [3]”, the “relative oxygen consumption rates, NADH-dependent metabolism, rank order” value is recorded as “GM>17DMAG, 17AG, 17AEP-GA>17AAG” and the “relative oxygen consumption rates, NADPH-dependent metabolism, rank order” value is “GM, 17DMAG, 17AEP-GA>17AG>17AAG”. Moreover, the “relative rate of glutathione conjugate formation, rank order” value (“relative rate” below) in series [4] is “GM>17DMAG>17AEP-GA>17AAG, 17AG”. Further, in [4] (within 10 hours), the “fraction of BA conjugated with glutathione” value (shortened to “fraction of BA conjugated”) was “about 90%”.
For the compound `CO[C@H]1/C=C\C=C(/C)C(=O)NC2=CC(=O)C(NCCN(C)C)=C(C[C@@H](C)C[C@H](OC)[C@H](O)[C@@H](C)/C=C(\C)[C@@H]1OC(N)=O)C2=O` [17DMAG, 17-demethoxy-17-[[2-(dimethylamino)ethyl]amino]-geldanamycin], in “Metabolism [2]”, the “relative oxygen consumption rates, NADH-dependent metabolism, rank order” value is given as “GM>17DMAG>17AG, 17AEP-GA, 17AAG” and the “oxygen consumption rates … comparison” value was “significantly greater than 17AAG”. The “prevention of conjugation with glutathione by NQO1 reduction” value on rhNQO1 is given as > 95%. The “compound in the quinone form on HPLC” value in series [5] is recorded as > 95%. For the same compound, in the series “Metabolism [3]”, the “relative oxygen consumption rates, NADH-dependent metabolism, rank order” value is on record as “GM>17DMAG, 17AG, 17AEP-GA>17AAG” and the “relative oxygen consumption rates, NADPH-dependent metabolism, rank order” value is given as “GM, 17DMAG, 17AEP-GA>17AG>17AAG”. In addition, the “relative rate” value in series [4] is given as “GM>17DMAG>17AEP-GA>17AAG, 17AG”. Further, the “glutathione conjugate (17DMAG-SG) formed” value in series [4] (5 mM reduced glutathione, phosphate buffer pH 7.4, room temperature, within 4 hours) is given as “approximately 47 μM”.
As to `COC1=C2C[C@@H](C)C[C@H](OC)[C@H](O)[C@@H](C)/C=C(\C)[C@H](OC(N)=O)[C@@H](OC)/C=C\C=C(/C)C(=O)NC(=CC1=O)C2=O` [GM, geldanamycin], in the series “Metabolism [2]”, the “relative oxygen consumption rates, NADH-dependent metabolism, rank order” value is reported as “GM>17DMAG>17AG, 17AEP-GA, 17AAG” and the “oxygen consumption rates … comparison” value is “significantly greater than 17AAG”. The “prevention of conjugation with glutathione by NQO1 reduction” value at rhNQO1 is listed as > 95%. The “oxygen consumption with NADH as cofactor” value in series [6] is “no oxygen consumption was observed”. Further, the “compound in the quinone form on HPLC” value in series [5] was “about 70%”. The one-electron redox potential in series [7] is recorded as −0.243 V. The “glutathione conjugate (GMH2-SG) formed” value in series [8] is reported as “approximately 45 μM”. Besides, in “Metabolism [3]”, the “relative oxygen consumption rates, NADH-dependent metabolism, rank order” value was “GM>17DMAG, 17AG, 17AEP-GA>17AAG” and the “relative oxygen consumption rates, NADPH-dependent metabolism, rank order” value is given as “GM, 17DMAG, 17AEP-GA>17AG>17AAG”. In addition, in series [4], the “relative rate” value is “GM>17DMAG>17AEP-GA>17AAG, 17AG”.
Consider `C=CCNc1c(O)cc2c(O)c1C[C@@H](C)C[C@H](OC)[C@H](O)[C@@H](C)/C=C(\C)[C@H](OC(N)=O)[C@@H](OC)/C=C\C=C(/C)C(=O)N2` [17AAGH2, 17-(allylamino)-17-demethoxygeldanamycin hydroquinone], for which the “relative stability of BAH2 (nmol oxygen consumption per nmol NADH oxidized), rank order” value in [1] was “GMH2>17AAGH2>17DMAGH2>17AGH2, 17AEP-GAH2”.
Consider `C=CCNC1=C2C[C@@H](C)C[C@H](OC)[C@H](O)[C@@H](C)/C=C(\C)[C@H](OC(N)=O)[C@@H](OC)/C=C\C=C(/C)C(=O)NC(=CC1=O)C2=O` [17AAG, 17-(allylamino)-17-demethoxygeldanamycin], for which, in “Metabolism [2]”, the “oxygen consumption rates … comparison” value is “significantly slower compared to GM”. In addition, the “compound in the quinone form on HPLC” value in series [5] is recorded as > 95%. For the same compound, the one-electron redox potential in series [7] is −0.390 V. Besides, the “fraction of BA conjugated” value in series [4] (after 24 hours) is listed as “less than 15%”.
As to `COC1C=CC=C(C)C(=O)Nc2cc(O)c(NCCN3CCCC3)c(c2O)CC(C)CC(OC)C(O)C(C)C=C(C)C1OC(N)=O` (stereo not shown) [17AEP-GAH2, 17-demethoxy-17-[[2-(pyrrolidin-1-yl)ethyl]amino]-geldanamycin hydroquinone], the “relative stability of BAH2 (nmol oxygen consumption per nmol NADH oxidized), rank order” value in series [1] is given as “GMH2>17AAGH2>17DMAGH2>17AGH2, 17AEP-GAH2”. For the same compound, the “half-life of auto-oxidation of BAH2 back to quinone (in words)” value in series [1] (auto-oxidation over time) is “a few minutes”.
Regarding `CO[C@H]1/C=C\C=C(/C)C(=O)NC2=CC(=O)C(N)=C(C[C@@H](C)C[C@H](OC)[C@H](O)[C@@H](C)/C=C(\C)[C@@H]1OC(N)=O)C2=O` [17AG, 17-(amino)-17-demethoxygeldanamycin], in “Metabolism [2]”, the “relative oxygen consumption rates, NADH-dependent metabolism, rank order” value is given as “GM>17DMAG>17AG, 17AEP-GA, 17AAG” and the “oxygen consumption rates … comparison” value was “significantly greater than 17AAG”. For the same compound, the “compound in the quinone form on HPLC” value in series [5] is reported as > 95%. Further, in the series “Metabolism [3]”, the “relative oxygen consumption rates, NADH-dependent metabolism, rank order” value is on record as “GM>17DMAG, 17AG, 17AEP-GA>17AAG” and the “relative oxygen consumption rates, NADPH-dependent metabolism, rank order” value is “GM, 17DMAG, 17AEP-GA>17AG>17AAG”. Further, in series [4], the “relative rate” value is “GM>17DMAG>17AEP-GA>17AAG, 17AG”. In series [4] (after 24 hours), the “fraction of BA conjugated” value is recorded as “less than 15%”.
In the case of `COc1c(O)cc2c(O)c1C[C@@H](C)C[C@H](OC)[C@H](O)[C@@H](C)/C=C(\C)[C@H](OC(N)=O)[C@@H](OC)/C=C\C=C(/C)C(=O)N2` [GMH2, geldanamycin hydroquinone], the “relative stability of BAH2 (nmol oxygen consumption per nmol NADH oxidized), rank order” value in [1] was “GMH2>17AAGH2>17DMAGH2>17AGH2, 17AEP-GAH2”. Besides, in [1] (auto-oxidation over time), the “half-life of auto-oxidation of BAH2 back to quinone” value was “about 20 hours”.
Take `COC1=CC(=O)c2c(c(COc3ccc([N+](=O)[O-])cc3)c(C)n2C)C1=O` [ES936, 5-methoxy-1,2-dimethyl-3-[(4-nitrophenoxy)methyl]indole-4,7-dione]: the “effect on NQO1-mediated prevention of BA glutathione conjugation” value at rhNQO1 (pretreatment with 2 μM ES936, GM or 17DMAG with NADH, rhNQO1 and glutathione) was “abrogated”.
